The source of these data is BindingDB's records for doi:10.1021/acs.jmedchem.5b00354 (Florida Atlantic University, 2015).

The assay in a line: Inhibition of ADAM17 in human A549 cells assessed as potentiation of gefitinib-mediated inhibition of cell viability by measuring gefitinib IC50 at 40 uM incubated for 1 hr followed by gefitinib addition measured after 72 hrs by CellTiter-Glo assay (Rvb = 8.4 microM).

Consider `O=C1NC[C@@H](Cc2ccc(O)cc2)N(C[C@@H]2CCCN2C[C@@H](Cc2ccc3ccccc3c2)N2C[C@H](Cc3ccc(O)cc3)N(CCC34CC5CC(CC(C5)C3)C4)C(=O)C2=O)C1=O`, for which the concentration for half-maximal inhibition (IC50) (usually the concentration at which inhibition is half-maximal) turned out to be 1900 nM.
